Laboratory results taken from patent publication US20230050653A1, “ROCK INHIBITOR AND PREPARATION METHOD THEREFOR AND USE THEREOF” (WUHAN LL SCIENCE AND TECHNOLOGY DEVELOPMENT CO., LTD., priority 2019, published 2023).
pIC50: −log10 of the molar value.

Tests used:
ROCK2 kinase = target: T1, ROCK2 kinase (Homo sapiens, UniProt O75116); assay: In vitro evaluation of ROCK2 kinase activity (HTRF KinEASE-STK time-resolved fluorometric assay); assay type: biochemical
T1 construct: purchased Invitrogen PV3759
Procedure: ROCK2 activity screening. ROCK2 activity was detected using a 96-well (Cisbio) time-resolved fluorometric assay. The assay for ROCK2 was performed in the following assay buffer: 5 mM MgCl2 (Sigma), 1 mM DTT (Sigma) and 1× kinase buffer. The kinase buffer was used for dilution. 7.5 μL of ROCK2 kinase (Invitrogen, PV3759) was added to a 96-well microplate to reach a final concentration of 0.4 ng/μL, and then 0.25 μL of test compound (DMSO content: 1% (volume fraction)) was added. The mixture was incubated at room temperature for 0.5 h. To start the reaction, the kinase buffer was used to mix ATP (Aladdin) and the substrate STK-substrate 2-biotin. 7.5 μL of the mixed solution was added to the microplate to reach final concentrations of 6.739 μM and 1 μM. The resulting mixture was incubated for 2 h at room temperature. 5 mL of detection buffer was mixed with STK antibody-Cryptate, and then an appropriate volume of the mixture was mixed with an equal volume of streptavidin-XL665. 10 μL of the resulting mixture was added to the microplate to stop the reaction. After further incubation for about 1 h, the microplate was read on a Molecular Devices SpectraMax i3x multifunctional microplate reader. The kinase buffer, the STK-substrate 2-biotin, the detection buffer, the STK antibody-Cryptate, and the streptavidin-XL665 were all from HTRF KinEASE-STK kit (Cisbio, 1000 tests, 61[…]).

ROCK1 kinase = target: T2, ROCK1 kinase (Homo sapiens, UniProt Q13464); assay: In vitro evaluation of ROCK1 kinase selectivity (HTRF KinEASE-STK time-resolved fluorometric assay); assay type: biochemical
T2 construct: purchased Invitrogen
Procedure: ROCK1 activity was detected using a 96-well (Cisbio) time-resolved fluorometric assay. The assay for ROCK1 was performed in the following assay buffer: 5 mM MgCl2 (Sigma), 1 mM DTT (Sigma) and 1× kinase buffer. The kinase buffer was used for dilution. 7.5 μL of ROCK1 kinase (Invitrogen) was added to a 96-well microplate to reach a final concentration of 0.4 ng/μL, and then 0.25 μL of test compound (DMSO content: 1%) was added. The mixture was incubated at room temperature for 0.5 h. To start the reaction, the kinase buffer was also used to mix ATP (Aladdin) and the substrate STK-substrate 2-biotin. 7.5 μL of the mixed solution was added to the microplate to reach final concentrations of 3.53 μM and 1 μM. The resulting mixture was incubated for 2 h at room temperature. […] was mixed with STK antibody-Cryptate, and then an appropriate volume of the mixture was mixed with an equal volume of streptavidin-XL665. 10 μL of the resulting mixture was added to stop the reaction. After further incubation for about 1 h, the microplate was read on a Molecular Devices SpectraMax i3x multifunctional microplate reader. The kinase buffer, the STK-substrate 2-biotin, the detection buffer, the STK antibody-Cryptate, and the streptavidin-XL665 were all from HTRF KinEASE-STK kit (Cisbio, 1000 tests, 61[…]).

T1 sequence (O75116 whole entry): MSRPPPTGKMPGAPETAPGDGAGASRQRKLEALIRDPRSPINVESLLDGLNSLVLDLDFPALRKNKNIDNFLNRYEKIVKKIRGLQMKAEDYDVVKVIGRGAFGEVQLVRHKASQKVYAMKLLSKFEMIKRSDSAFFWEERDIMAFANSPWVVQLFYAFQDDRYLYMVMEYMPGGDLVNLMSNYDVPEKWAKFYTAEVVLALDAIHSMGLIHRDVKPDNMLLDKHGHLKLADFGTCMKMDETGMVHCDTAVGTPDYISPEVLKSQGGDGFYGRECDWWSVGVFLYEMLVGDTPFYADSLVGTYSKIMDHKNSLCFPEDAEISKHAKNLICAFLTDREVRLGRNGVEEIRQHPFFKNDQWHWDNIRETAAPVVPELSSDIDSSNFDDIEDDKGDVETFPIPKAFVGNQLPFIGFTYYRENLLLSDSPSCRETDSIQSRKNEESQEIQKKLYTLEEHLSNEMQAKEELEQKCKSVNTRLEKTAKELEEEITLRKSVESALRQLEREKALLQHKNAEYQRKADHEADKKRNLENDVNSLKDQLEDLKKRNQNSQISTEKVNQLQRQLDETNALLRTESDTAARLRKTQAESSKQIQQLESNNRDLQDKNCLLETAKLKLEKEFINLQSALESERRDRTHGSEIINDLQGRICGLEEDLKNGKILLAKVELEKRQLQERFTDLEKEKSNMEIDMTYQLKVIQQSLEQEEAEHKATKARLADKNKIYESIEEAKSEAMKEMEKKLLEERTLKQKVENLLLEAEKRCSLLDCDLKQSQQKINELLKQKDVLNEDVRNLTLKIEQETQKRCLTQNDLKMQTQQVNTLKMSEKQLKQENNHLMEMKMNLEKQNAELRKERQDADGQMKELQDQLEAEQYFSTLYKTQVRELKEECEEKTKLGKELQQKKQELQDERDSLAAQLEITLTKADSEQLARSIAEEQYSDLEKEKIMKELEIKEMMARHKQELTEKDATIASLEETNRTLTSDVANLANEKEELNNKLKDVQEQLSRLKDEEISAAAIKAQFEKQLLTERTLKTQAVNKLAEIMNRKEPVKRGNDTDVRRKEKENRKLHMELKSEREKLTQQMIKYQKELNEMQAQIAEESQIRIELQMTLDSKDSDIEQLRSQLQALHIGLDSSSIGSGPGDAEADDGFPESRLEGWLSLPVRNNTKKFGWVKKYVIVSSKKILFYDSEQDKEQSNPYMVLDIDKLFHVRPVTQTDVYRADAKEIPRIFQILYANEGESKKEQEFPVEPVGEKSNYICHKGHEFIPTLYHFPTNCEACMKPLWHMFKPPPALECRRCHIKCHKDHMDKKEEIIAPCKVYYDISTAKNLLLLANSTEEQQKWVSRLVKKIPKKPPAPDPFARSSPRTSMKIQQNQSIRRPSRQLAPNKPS
T2 sequence (Q13464 whole entry): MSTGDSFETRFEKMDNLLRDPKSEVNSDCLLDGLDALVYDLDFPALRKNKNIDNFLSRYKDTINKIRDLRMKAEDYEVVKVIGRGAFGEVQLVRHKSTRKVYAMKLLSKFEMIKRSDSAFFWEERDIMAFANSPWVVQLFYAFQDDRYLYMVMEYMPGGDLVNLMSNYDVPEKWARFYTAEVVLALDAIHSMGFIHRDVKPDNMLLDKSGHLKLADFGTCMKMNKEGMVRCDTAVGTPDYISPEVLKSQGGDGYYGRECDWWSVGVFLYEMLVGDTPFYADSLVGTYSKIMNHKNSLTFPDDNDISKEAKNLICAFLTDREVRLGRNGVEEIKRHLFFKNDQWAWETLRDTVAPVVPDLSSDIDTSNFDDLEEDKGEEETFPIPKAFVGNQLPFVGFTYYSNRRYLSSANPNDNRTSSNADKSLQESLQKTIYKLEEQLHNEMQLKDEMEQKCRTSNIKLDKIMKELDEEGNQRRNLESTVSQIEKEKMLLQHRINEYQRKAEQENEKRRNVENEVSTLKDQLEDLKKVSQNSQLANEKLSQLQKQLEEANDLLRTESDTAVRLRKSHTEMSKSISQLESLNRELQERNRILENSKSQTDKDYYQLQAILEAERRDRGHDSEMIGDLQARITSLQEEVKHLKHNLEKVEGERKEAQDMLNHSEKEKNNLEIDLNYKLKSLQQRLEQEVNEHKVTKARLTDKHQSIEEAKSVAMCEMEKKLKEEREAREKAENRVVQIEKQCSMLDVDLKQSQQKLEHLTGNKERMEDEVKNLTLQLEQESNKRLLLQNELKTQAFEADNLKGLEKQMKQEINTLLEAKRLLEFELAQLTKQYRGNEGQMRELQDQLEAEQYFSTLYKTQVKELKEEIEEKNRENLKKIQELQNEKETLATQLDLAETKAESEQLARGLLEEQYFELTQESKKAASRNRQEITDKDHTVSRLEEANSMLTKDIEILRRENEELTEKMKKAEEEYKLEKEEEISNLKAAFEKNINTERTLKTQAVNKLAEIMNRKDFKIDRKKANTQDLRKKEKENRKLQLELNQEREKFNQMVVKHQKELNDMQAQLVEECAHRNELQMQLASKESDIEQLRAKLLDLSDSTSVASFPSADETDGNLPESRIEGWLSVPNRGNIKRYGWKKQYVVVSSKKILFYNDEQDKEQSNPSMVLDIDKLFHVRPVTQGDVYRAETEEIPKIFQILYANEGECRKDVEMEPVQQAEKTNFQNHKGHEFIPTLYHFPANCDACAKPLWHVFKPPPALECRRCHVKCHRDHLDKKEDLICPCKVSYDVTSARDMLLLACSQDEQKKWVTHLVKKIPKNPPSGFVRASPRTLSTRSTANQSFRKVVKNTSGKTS

| SMILES | pIC50 (ROCK2 kinase) | pIC50 (ROCK1 kinase) |
| --- | --- | --- |
| COc1cc(F)cc(C(CN(C)C)NC(=O)N2CCc3cc(-c4c[nH]nc4F)c(F)cc32)c1 (racemic) [Compound T388, (+/−)N-(2-(dimethylamino)-1-(3-fluoro-5-methoxyphenyl)ethyl)-6-fluoro-5-(3-fluoro-1H-pyrazol-4-yl)indoline-1-carboxamide] | ≥ 7.30 | 6.30 to 7.30 |
| COc1cc(F)cc(CN(C)C(=O)N2CCc3cc(-c4cn[nH]c4)ccc32)c1 [Compound T206, N-(3-fluoro-5-methoxybenzyl)-N-methyl-5-(1H-pyrazol-4-yl)indoline-1-carboxamide] | 6.30 to 7.30 | 5.30 to 6.30 |
| O=C(NCc1ccccc1)N1CCc2cc(-c3cn[nH]c3)ccc21 [Compound T207, N-benzyl-5-(1H-pyrazol-4-yl)indoline-1-carboxamide] | ≥ 7.30 | ≥ 7.30 |
| COc1cc(F)cc(CNC(=O)N2CCc3ccc(-c4cn[nH]c4)cc3C2)c1 [Compound T208, N-(3-fluoro-5-methoxybenzyl)-7-(1H-pyrazol-4-yl)-3,4-dihydroisoquinoline-2(1H)-carboxamide] | ≥ 7.30 | ≥ 7.30 |
| COc1cc(F)cc(CNC(=O)N2Cc3ccc(-c4cn[nH]c4)cc3C2)c1 [Compound T209, N-(3-fluoro-5-methoxybenzyl)-5-(1H-pyrazol-4-yl)isoindoline-2-carboxamide] | 6.30 to 7.30 | 6.30 to 7.30 |
| COc1cc(F)cc(CNC(=O)n2ccc3cc(-c4cn[nH]c4)ccc32)c1 [Compound T210] | 6.30 to 7.30 | 6.30 to 7.30 |
| COc1cc(F)cc(CN(CC2COC2)C(=O)N2CCc3cc(-c4cn[nH]c4)ccc32)c1 [Compound T212] | 5.30 to 6.30 | 5.30 to 6.30 |
| COCCOc1cc(F)cc(CNC(=O)N2CCc3cc(-c4cn[nH]c4)ccc32)c1 [Compound T213] | ≥ 7.30 | ≥ 7.30 |
| COc1cc(F)cc(CN(C(=O)N2CCc3cc(-c4cn[nH]c4)ccc3C2)C2COC2)c1 [Compound T214] | 6.30 to 7.30 | 6.30 to 7.30 |
| COc1cc(F)cc(CN(C(=O)N2CCc3cc(-c4cn[nH]c4)ccc32)C2CCOCC2)c1 [Compound T215] | 5.30 to 6.30 | 5.30 to 6.30 |
| COc1cc(F)cc(CN(C(=O)N2CCc3cc(-c4cn[nH]c4)ccc3C2)C2CCOCC2)c1 [Compound T216] | 6.30 to 7.30 | 6.30 to 7.30 |
| COc1cc(F)cc(CNC(=O)N2CCc3cc(-c4c[nH]nn4)ccc32)c1 [Compound T217, N-(3-fluoro-5-methoxybenzyl)-5-(1H-1,2,3-triazol-4-yl)indoline-1-carboxamide] | 6.30 to 7.30 | 6.30 to 7.30 |
| COc1cc(F)cc(CNC(=O)N2CCc3cc(-c4cn[nH]c4)cnc32)c1 [Compound T218, N-(3-fluoro-5-methoxybenzyl)-5-(1H-pyrazol-4-yl)-2,3-dihydro-1H-pyrrolo(2,3-b)pyridine-1-carboxamide] | 5.30 to 6.30 | 6.30 to 7.30 |
| COc1cc(F)cc(CNC(=O)N2CCc3cc(-c4cn[nH]c4)ncc32)c1 [Compound T219] | ≥ 7.30 | ≥ 7.30 |
| COc1cc(F)cc(CNC(=O)N2CCc3nc(-c4cn[nH]c4)ccc32)c1 [Compound T220, N-(3-fluoro-5-methoxybenzyl)-5-(1H-pyrazol-4-yl)-2,3-dihydro-1H-pyrrolo(3,2-b)pyridine-1-carboxamide] | 6.30 to 7.30 | 6.30 to 7.30 |
| COc1cc(F)cc(CNC(=O)N2CCc3cc(-c4cn[nH]c4)cc(Cl)c32)c1 [Compound T221, 7-chloro-N-(3-fluoro-5-methoxybenzyl)-5-(1H-pyrazol-4-yl)indoline-1-carboxamide] | 6.30 to 7.30 | 6.30 to 7.30 |
| COc1cc(F)cc(CNC(=O)N2CCc3cc(-c4cn[nH]c4)c(Cl)cc32)c1 [Compound T222, 6-chloro-N-(3-fluoro-5-methoxybenzyl)-5-(1H-pyrazol-4-yl)indoline-1-carboxamide] | ≥ 7.30 | ≥ 7.30 |
| COc1cc(F)cc(CNC(=O)N2CC(C)(C)c3cc(-c4cn[nH]c4)ccc32)c1 [Compound T223] | ≥ 7.30 | ≥ 7.30 |
| COc1cc(F)cc(CNC(=O)N2CCc3nc(-c4cn[nH]c4)sc3C2)c1 [Compound T224, N-(3-fluoro-5-methoxybenzyl)-2-(1H-pyrazol-4-yl)-6,7-dihydrothiazolo[5,4-c]pyridine-5(4H)-carboxamide] | 6.30 to 7.30 | 6.30 to 7.30 |
| COc1cc(F)cc(CNC(=O)N2CCc3cc(-c4cn[nH]c4)c(F)cc32)c1 [Compound T225, 6-fluoro-N-(3-fluoro-5-methoxybenzyl)-5-(1H-pyrazol-4-yl)indoline-1-carboxamide] | ≥ 7.30 | ≥ 7.30 |
| O=C(NCc1cc(F)cc(F)c1)N1CCc2cc(-c3cn[nH]c3)ccc21 [Compound T226] | ≥ 7.30 | 6.30 to 7.30 |
| COc1cc(CNC(=O)N2CCc3cc(-c4cn[nH]c4)ccc32)ccn1 [Compound T227] | ≥ 7.30 | ≥ 7.30 |

| SMILES | pIC50 (ROCK2 kinase) | pIC50 (ROCK1 kinase) |
| --- | --- | --- |
| COc1cc(F)cc(CNC(=O)N2CCc3c2cc(F)c(-c2cn[nH]c2)c3F)c1 [Compound T228, 4,6-difluoro-N-(3-fluoro-5-methoxybenzyl)-5-(1H-pyrazol-4-yl)indoline-1-carboxamide] | ≥ 7.30 | ≥ 7.30 |
| COc1cc(F)cc(CNC(=O)N2CCCc3nc(-c4cn[nH]c4)sc32)c1 [Compound T229] | ≥ 7.30 | ≥ 7.30 |
| COc1cc(F)cc(CNC(=O)N2CCCc3sc(-c4cn[nH]c4)nc32)c1 [Compound T230] | 6.30 to 7.30 | 6.30 to 7.30 |
| COc1cc(F)cc(CNC(=O)N2CCc3nc(-c4cn[nH]c4)ncc32)c1 [Compound T231] | ≥ 7.30 | ≥ 7.30 |
| COc1cc(F)cc(CNC(=O)c2cnc3cc(-c4cn[nH]c4)ccn23)c1 [Compound T233] | ≥ 7.30 | ≥ 7.30 |
| COc1cc(F)cc(CNC(=O)c2ncc3cc(-c4cn[nH]c4)ccn23)c1 [Compound T234] | ≥ 7.30 | ≥ 7.30 |
| COc1cc(F)cc(CNC(=O)c2ccc3nc(-c4cn[nH]c4)ccn23)c1 [Compound T235] | ≥ 7.30 | ≥ 7.30 |
| COc1cc(F)cc(CNC(=O)c2nn(C)c3cc(-c4cn[nH]c4)ccc23)c1 [Compound T236] | ≥ 7.30 | ≥ 7.30 |
| COc1cc(F)cc(CNC(=O)c2ccn3cc(-c4cn[nH]c4)ccc23)c1 [Compound T237] | ≥ 7.30 | ≥ 7.30 |
| COc1cc(F)cc(CNC(=O)c2cnn3cc(-c4cn[nH]c4)ccc23)c1 [Compound T239] | ≥ 7.30 | ≥ 7.30 |
| O=C(NCc1ccn[nH]1)N1CCc2cc(-c3cn[nH]c3)ccc21 [Compound T240] | 5.30 to 6.30 | 5.30 to 6.30 |
| Cn1cc(CNC(=O)N2CCc3cc(-c4cn[nH]c4)ccc32)cn1 [Compound T241] | 6.30 to 7.30 | 6.30 to 7.30 |
| Cn1cnc(CNC(=O)N2CCc3cc(-c4cn[nH]c4)ccc32)c1 [Compound T242] | 6.30 to 7.30 | 6.30 to 7.30 |
| COc1cc(F)cc(CN(Cc2ccccc2)C(=O)N2CCc3cc(-c4cn[nH]c4)ccc32)c1 [Compound T243] | 5.30 to 6.30 | 5.30 to 6.30 |
| CN(C)CCN(Cc1ccccc1)C(=O)N1CCc2cc(-c3cn[nH]c3)ccc21 [Compound T244] | 6.30 to 7.30 | 6.30 to 7.30 |
| O=C(NCc1ccccc1)N1CCc2cc(-c3ccncc3)ccc21 [Compound T245] | 6.30 to 7.30 | 6.30 to 7.30 |
| O=C(NCc1ccccc1)N1CCc2cc(-c3ccc4[nH]ccc4c3)ccc21 [Compound T246] | 5.30 to 6.30 | 5.30 to 6.30 |
| O=C(NCc1ccc2[nH]cnc2c1)N1CCc2cc(-c3cn[nH]c3)ccc21 [Compound T247] | 6.30 to 7.30 | 6.30 to 7.30 |
| CN(C)CCC(NC(=O)N1CCc2cc(-c3cn[nH]c3)ccc21)c1ccccc1 (stereo not shown) [Compound T248] | 6.30 to 7.30 | 6.30 to 7.30 |
| O=C(NC(c1ccccc1)c1ccccc1)N1CCc2cc(-c3cn[nH]c3)ccc21 [Compound T249] | 5.30 to 6.30 | 5.30 to 6.30 |
| COc1cccc(F)c1C(CO)NC(=O)N1CCc2cc(-c3cn[nH]c3)c(F)cc21 (stereo not shown) [Compound T363, 6-fluoro-N-(1-(2-fluoro-6-methoxyphenyl)-2-hydroxyethyl)-5-(1H-pyrazol-4-yl)indoline-1-carboxamide] | 6.30 to 7.30 | – |
